# According to patent US9682965B2, “Fumagillol heterocyclic compounds and methods of making and using same” (Zafgen, Inc., priority 2015, dated 2017):
# Where a name gives a salt, the structure may show the parent alone.
# System: Diet Induced Obese (DIO) C57BL/6 mice
# Experiment: 10 day DIO mouse model (body weight, food intake, hematology, blood chemistry)
# Format: in vivo
# Conditions: 240 h; DIO mouse, 0.3 mpk sc, once a day for 10 days; read-out: DIO Mouse 10-day weight loss vs vehicle
# Source text: The objective of this study design was to investigate the efficacy of disclosed compounds in a 10 day DIO mouse model. Effects on body weight, food intake, hematology and blood chemistry were the primary readouts of this study design. […] Mice were fed Research Diets D12492 (60% Kcal fat, 20% Kcal carbohydrate and 20% protein) and provided water ad libitum. DIO mice were received and housed in the facility for approximately two weeks prior to the start of test article administration. On Day −4 or −3, mice were randomized into study groups based on body weight and body weights were continued to be recorded daily for the duration of the study. Daily food intake was assessed starting on Study Day −2 by weighing of the food with hopper together to avoid loss of food in transfer.
# Compounds were formulated into a 100% DMSO stock (at 9 mg/mL) prior to the start, and further diluted into the target working concentration using the vehicle of 10% DMSO in water. Prior to test article administration, starting on Day −3 a dosing acclimation occured with all animals receiving a subcutaneous injection of vehicle (10% DMSO) only for 3 days. Starting on Day 1, test compounds or vehicle were administered based on individual body weight, subcutaneously, once a day for 10 days. All mice were sacrificed on Day 11, 24 hours following the final dosing on Day 10. After sacrifice, whole blood was collected and analyzed for hematology and blood chemistry parameters.
# Compounds were tested vs. vehicle at various doses (1.0, 0.5, 0.3, 0.1, 0.03 mpk sc (mg per kg animal weight delivered subcutaneously), and the results are shown in Table 2 below.
row,Structure (SMILES),inhibition in vivo at 0.3 mg/kg [%]
1,"CCN(CC)CC[C@H]1CCCN1C(=O)O[C@@H]1CC[C@]2(CO2)[C@@H]([C@@]2(C)O[C@@H]2CC=C(C)C)[C@@H]1OC [Example 50, (R)-((3R,4S,5S,6R)-5-methoxy-4-((2R,3R)-2-methyl-3-(3-methylbut-2-enyl)oxiran-2-yl)-1-oxaspiro[2.5]octan-6-yl) 2-(2-(diethylamino)ethyl)pyrrolidine-1-carboxylate formate]",2.6
2,"CO[C@@H]1[C@H](OC(=O)N2CC(CCN3[C@@H]4CC[C@H]3COC4)C2)CC[C@]2(CO2)[C@H]1[C@@]1(C)O[C@@H]1CC=C(C)C [Example 31, (3R,4S,5S,6R)-5-methoxy-4-((2R,3R)-2-methyl-3-(3-methylbut-2-enyl)oxiran-2-yl)-1-oxaspiro[2.5]octan-6-yl 3-(2-((1R,5S)-3-oxa-8-azabicyclo[3.2.1]octan-8-yl)ethyl)azetidine-1-carboxylate]",4.2
3,"CO[C@@H]1[C@H](OC(=O)N2CC(CCN3CC(C)(C#N)C3)C2)CC[C@]2(CO2)[C@H]1[C@@]1(C)O[C@@H]1CC=C(C)C [Example 14, (3R,4S,5S,6R)-5-methoxy-4-((2R,3R)-2-methyl-3-(3-methylbut-2-enyl)oxiran-2-yl)-1-oxaspiro[2.5]octan-6-yl 3-(2-(3-cyano-3-methylazetidin-1-yl)ethyl)azetidine-1-carboxylate]",12.5
4,"CO[C@@H]1[C@H](OC(=O)N2CC(OC(=O)NCC(C)(C)O)C2)CC[C@]2(CO2)[C@H]1[C@@]1(C)O[C@@H]1CC=C(C)C [Example 82, (3R,4S,5S,6R)-5-methoxy-4-((2R,3R)-2-methyl-3-(3-methylbut-2-enyl)oxiran-2-yl)-1-oxaspiro[2.5]octan-6-yl 3-(2-hydroxy-2-methylpropylcarbamoyloxy)azetidine-1-carboxylate]",-0.7
5,"CO[C@@H]1[C@H](OC(=O)N2CC(CCN3CCCC3)C2)CC[C@]2(CO2)[C@H]1[C@@]1(C)O[C@@H]1CC=C(C)C [Example 3, (3R,4S,5S,6R)-5-methoxy-4-((2R,3R)-2-methyl-3-(3-methylbut-2-enyl)oxiran-2-yl)-1-oxaspiro[2.5]octan-6-yl 3-(2-(pyrrolidin-1-yl)ethyl)azetidine-1-carboxylate formate]",5.9
6,"CO[C@@H]1[C@H](OC(=O)N2CC(CCN3CCC(C)(C#N)CC3)C2)CC[C@]2(CO2)[C@H]1[C@@]1(C)O[C@@H]1CC=C(C)C [Example 29, (3R,4S,5S,6R)-5-methoxy-4-((2R,3R)-2-methyl-3-(3-methylbut-2-enyl)oxiran-2-yl)-1-oxaspiro[2.5]octan-6-yl 3-(2-(4-cyano-4-methylpiperidin-1-yl)ethyl)azetidine-1-carboxylate]",10.7
7,"CO[C@@H]1[C@H](OC(=O)N2CC(CCC3CN(CC(F)F)C3)C2)CC[C@]2(CO2)[C@H]1[C@@]1(C)O[C@@H]1CC=C(C)C [Example 92, (3R,4S,5S,6R)-5-methoxy-4-((2R,3R)-2-methyl-3-(3-methylbut-2-enyl)oxiran-2-yl)-1-oxaspiro[2.5]octan-6-yl 3-(2-(1-(2,2-difluoroethyl)azetidin-3-yl)ethyl)azetidine-1-carboxylate]",20.7
8,"CO[C@@H]1[C@H](OC(=O)N2CC(CCN3CCS(=O)(=O)CC3)C2)CC[C@]2(CO2)[C@H]1[C@@]1(C)O[C@@H]1CC=C(C)C [Example 10, (3R,4S,5S,6R)-5-methoxy-4-((2R,3R)-2-methyl-3-(3-methylbut-2-enyl)oxiran-2-yl)-1-oxaspiro[2.5]octan-6-yl 3-(2-thiomorpholinoethyl)azetidine 2,2-dioxide-1-carboxylate]",1.8
9,"CO[C@@H]1[C@H](OC(=O)N2CC(CCN3CCN(CC(F)F)CC3=O)C2)CC[C@]2(CO2)[C@H]1[C@@]1(C)O[C@@H]1CC=C(C)C [Example 35, (3R,4S,5S,6R)-5-methoxy-4-((2R,3R)-2-methyl-3-(3-methylbut-2-enyl)oxiran-2-yl)-1-oxaspiro[2.5]octan-6-yl 3-(2-(4-(2,2-difluoroethyl)-2-oxopiperazin-1-yl)ethyl)azetidine-1-carboxylate]",21.3
10,"CO[C@@H]1[C@H](OC(=O)N2CC(CCC3CCN(CC(F)F)CC3)C2)CC[C@]2(CO2)[C@H]1[C@@]1(C)O[C@@H]1CCC(C)C [Example 128, (3R,4S,5S,6R)-4-((2R,3R)-3-isopentyl-2-methyloxiran-2-yl)-5-methoxy-1-oxaspiro[2.5]octan-6-yl 3-(2-(1-(2,2-difluoroethyl)piperidin-4-yl)ethyl)azetidine-1-carboxylate]",15.2
11,"CO[C@@H]1[C@H](OC(=O)N2CC(CCN3CC[C@H](O)C3)C2)CC[C@]2(CO2)[C@H]1[C@@]1(C)O[C@@H]1CC=C(C)C [Example 46, (3R,4S,5S,6R)-5-methoxy-4-((2R,3R)-2-methyl-3-(3-methylbut-2-enyl)oxiran-2-yl)-1-oxaspiro[2.5]octan-6-yl 3-(2-((S)-3-hydroxypyrrolidin-1-yl)ethyl)azetidine-1-carboxylate formate]",5.2
12,"CO[C@@H]1[C@H](OC(=O)N2CC(CCN3CC[C@@H](F)C3)C2)CC[C@]2(CO2)[C@H]1[C@@]1(C)O[C@@H]1CC=C(C)C [Example 27, (3R,4S,5S,6R)-5-methoxy-4-((2R,3R)-2-methyl-3-(3-methylbut-2-enyl)oxiran-2-yl)-1-oxaspiro[2.5]octan-6-yl 3-(2-((R)-3-fluoropyrrolidin-1-yl)ethyl)azetidine-1-carboxylate]",13.3
13,"CO[C@@H]1[C@H](OC(=O)N2CC(CCN3CCC(F)(F)CC3)C2)CC[C@]2(CO2)[C@H]1[C@@]1(C)O[C@@H]1CC=C(C)C [Example 13, (3R,4S,5S,6R)-5-methoxy-4-((2R,3R)-2-methyl-3-(3-methylbut-2-enyl)oxiran-2-yl)-1-oxaspiro[2.5]octan-6-yl 3-(2-(4,4-difluoropiperidin-1-yl)ethyl)azetidine-1-carboxylate]",18.2
14,"CCN(CC)C[C@H]1CCN(C(=O)O[C@@H]2CC[C@]3(CO3)[C@@H]([C@@]3(C)O[C@@H]3CC=C(C)C)[C@@H]2OC)C1 [Example 38, (R)-((3R,4S,5S,6R)-5-methoxy-4-((2R,3R)-2-methyl-3-(3-methylbut-2-enyl)oxiran-2-yl)-1-oxaspiro[2.5]octan-6-yl) 3-((diethylamino)methyl)pyrrolidine-1-carboxylate formate]",6.7
15,"CO[C@@H]1[C@H](OC(=O)N2CC(CCC(=O)NCCN3CCOCC3)C2)CC[C@]2(CO2)[C@H]1[C@@]1(C)O[C@@H]1CC=C(C)C [Example 67, (3R,4S,5S,6R)-5-methoxy-4-((2R,3R)-2-methyl-3-(3-methylbut-2-enyl)oxiran-2-yl)-1-oxaspiro[2.5]octan-6-yl 3-(3-(2-morpholinoethylamino)-3-oxopropyl)azetidine-1-carboxylate]",2.8
16,"CCNC(=O)OC1CN(C(=O)O[C@@H]2CC[C@]3(CO3)[C@@H]([C@@]3(C)O[C@@H]3CC=C(C)C)[C@@H]2OC)C1 [Example 75, (3R,4S,5S,6R)-5-methoxy-4-((2R,3R)-2-methyl-3-(3-methylbut-2-enyl)oxiran-2-yl)-1-oxaspiro[2.5]octan-6-yl 3-(ethylcarbamoyloxy)azetidine-1-carboxylate]",12.8
